Test results taken from US20020198161A1, “THERAPEUTIC USES OF ANTIOXIDANTS” (priority 1997, published 2002).
Entries after “also recorded” stand apart in the source; their conditions may differ.

How the values were obtained:
tMEF p53+/+ cells [1] = test: Apoptosis / viability in E1A/Ha-ras-transformed MEF (tMEF p53+/+); format: cell-based, mouse; settings: for apoptosis in E1A/Ha-ras transformed cells (viability, DNA fragmentation, flow cytometry): 50 μM DMP, 20 mM OTC, 24-48 h; for effect on cell viability (trypan blue exclusion) / apoptosis (DNA analysis): p53+/+ tMEF; for effect on cell viability (trypan blue exclusion): 48 h, tocopherol acetate 200 μM, Trolox 200 μM, BHA 100 μM; for apoptosis (DNA analysis): chain-breaking antioxidants
Protocol: Cell Lines. MEF primary mouse embryo fibroblast cells (passage <5) and E1A/Ha-ras-transformed MEF were as in Lowe (18). […] The (Rostein, J. B. et al., 1988, Mutation Research 202:421-427) 1 mouse embryo fibroblast cell line was as in Levine (Harney, D. M. et al., 1991, Genes Dev. 5:2375-2385). BALB/c 3T3 A31 cells were obtained from the American Type Culture Collection (Bethesda, Md.). 308 papilloma cells were maintained in 0.05 mM Ca2+ EMEM medium with 10% fetal bovine serum, and all other cells were grown in DMEM medium with 10% heat-inactivated fetal bovine serum. Cell culture confluence was maintained below 80%.
(§1) Chemicals and Cell Treatments. All chemicals were obtained from Sigma, except for Trolox which was purchased from Aldrich. These compounds were freshly dissolved in medium and adjusted to neutral pH if necessary, or (for vitamin E acetate, Trolox, and BHA) first dissolved in ethanol and added to the medium. Cell viability was determined by trypan blue exclusion as a measure of cell death independent of any growth suppression by p53.
(§2) Apoptosis Assays. For fixed cells, apoptosis-associated DNA strand breaks were visualized by fluorescent in situ end-labeling as previously described (Ziegler, A. et al., 1994, Nature 372:773-776). For isolated DNA, DNA fragmentation analysis was performed (Lowe, S. W. et al., 1993, Cell 74:957-967).
(§3) For flow cytometry analysis, approximately 10^6 cells per sample were washed with ice-cold PBS and fixed in 95% ethanol. Cells were then resuspended in 1 mg/ml RNase (Sigma) for 30 min at 37° C. and stained with 0.05 mg/ml propidium iodide (Sigma) for 1 h on ice. Flow cytometric analysis was performed with a FACS Vantage flow cytometer (Becton-Dickinson). Cells were excited at 488 nm and the emission was detected through a 630/22 nm band pass filter. A minimum of 10,000 cells were analyzed for each sample. Cell cycle analysis was performed using the Modfit 5.2 software (Verity Software House). […] Cellular debris was gated out using the electronic threshold.

tMEF p53+/+ cells [2] = test: GSH and total thiols in tMEF p53+/+ cells (GSH-400 kit); format: cell-based, mouse; settings: 20 μM BSO 1 h preincubation then 20 μM BSO + 20 mM NAC 5 h
Protocol: FIG. 6. Analysis of GSH, total thiols, and viability in tMEF p53+/+ cells treated with BSO and/or NAC. Cells treated with both compounds were preincubated with medium containing 20 μM BSO for 1 h and then treated with medium containing 20 μM BSO and 20 mM NAC for 5 h (GSH and thiols) or for 24 h (viability).
Measurement of GSH and Total Thiols. Cells (4×106) were harvested from each sample. The GSH-400 kit (R & D Systems) was used following the manufacturer's instructions.

MEF p53+/+ cells = test: Apoptosis / viability in normal primary MEF (MEF p53+/+); format: cell-based, mouse; settings: for apoptosis in normal counterparts: normal MEF, 50 μM DMP, 20 mM OTC
Text: (§4) Cell Lines. MEF primary mouse embryo fibroblast cells (passage <5) and E1A/Ha-ras-transformed MEF were as in Lowe (18). The 308 papilloma cell line, which has a mutant Ha-ras allele (Strickland, J. E. et al., 1988, Cancer Res. 48) and wild-type p53 (Liu, M. et al., 1995, Oncogene 10:1955-1960) were also utilized. The (Rostein, J. B. et al., 1988, Mutation Research 202:421-427) 1 mouse embryo fibroblast cell line was as in Levine (Harney, D. M. et al., 1991, Genes Dev. 5:2375-2385). BALB/c 3T3 A31 cells were obtained from the American Type Culture Collection (Bethesda, Md.). 308 papilloma cells were maintained in 0.05 mM Ca2+ EMEM medium with 10% fetal bovine serum, and all other cells were grown in DMEM medium with 10% heat-inactivated fetal bovine serum. Cell culture confluence was maintained below 80%.
as §1, §2, §3

[3] = system: p53-/- tMEF and MEF cells; test: Apoptosis / viability in transformed and normal primary cells from p53-/- null mice; format: cell-based, mouse; settings: for p53 requirement of apoptosis induction: p53-/- versus p53+/+ transformed MEF
Text: as §4, §1, §2

[4] = system: p53+/+ colorectal carcinoma cell line RKO; test: Apoptosis in colorectal carcinoma cell line RKO; format: cell-based; settings: human p53+/+ RKO cells
Protocol: as §2

308 papilloma cells [5] = test: Cell viability by trypan blue exclusion in 308 papilloma cells; format: cell-based, murine; settings: NAC dose range
Text: as §4, §1

308 papilloma cells [6] = test: Apoptosis-associated DNA strand breaks, fluorescent in situ end-labeling, 308 cells; format: cell-based, murine; settings: 20 mM NAC, 24 h
Text: as §4, §2

p53 protein [7] = test: p53 protein level in 308 cells (Western blot); format: cell-based, murine; settings: dose-dependent, within 3 to 8 hours
Text: as §4
(§5) Northern and Western Blot Analysis. Northern and Western blot analysis were performed as previously described (Liu, M. et al., 1995, Oncogene 10:1955-1960).

p53 mRNA = p53 mRNA steady-state level in 308 cells (Northern blot); format: cell-based, murine; settings: 20 mM NAC, 5 h
Text: as §4, §5

p53 protein [8] = test: p53 protein synthesis rate in 308 cells (35S-methionine labeling); format: cell-based, murine; settings: 20 mM NAC, 5 h post-treatment
Protocol: Analysis of p53 Protein Synthesis. Cultures of 308 cells were treated in the absence or presence of 20 mM NAC. At 4.5 h post-treatment, cells were incubated with methionine-free medium containing 2% dialyzed and chelexed fetal bovine serum for 0.5 h. At 5 h post-treatment, biosynthetic labeling was initiated by adding 200 μCi of ^35S-methionine per ml of methionine-free medium. The labeling was terminated at 5, 10, or 15 min. Throughout the experiment, 20 mM NAC was included in the group of NAC-treated cells. Cells were then washed twice with 10 ml of ice-cold PBS, scraped, and pelleted by centrifugation at 1500 rpm at 4° C. for 5 min. The supernatant was removed, and the cell pellet was lysed in ice-cold cell lysis buffer (0.5% Triton X-100, 300 mM NaCl, 50 mM Tris-HCl, pH 7.4, 10 μg/ml leupeptin, 0.1 mM phenylmethylsulfonyl fluoride). Aliquots of cell lysate containing equal amounts of protein (30 μg) were subjected to immunoprecipitation analysis with anti-p53 antibody PAb122 (25) and Protein A-agarose (GIBCO-BRL). The immunoprecipitated proteins were resolved on a 10% SDS-PAGE gel. The levels of synthesized p53 protein were then determined by densitometric scanning using a Hewlett-Packard ScanJet 4P Scanner and the NIH image 1.59 analysis software.

p53 = p53 induction in BALB/c 3T3 A31 fibroblast cell line; format: cell-based, murine; settings: BALB/c 3T3 A31 cells
Text: as §4, §5

p53 protein [9] = test: p53 induction in normal MEF p53+/+ cells (immunohistochemical staining); format: cell-based, mouse; settings: 20 mM NAC, 5 h
Protocol: FIGS. 2A-2C. p53-dependent apoptosis by NAC is selective for transformed cells. FIG. 2A: viability of normal (MEF) and transformed (tMEF) cells measured by trypan blue exclusion after treatment with NAC for 24 h. FIG. 2B: analysis of DNA fragmentation from tMEF cells exposed to NAC. FIG. 2C: immunohistochemical staining of p53 protein in p53+/+ MEF cells after 5 h exposure to 20 mM NAC.
as §4

DNA = settings: literature references; cited from earlier work

Compound | apoptosis in E1A/Ha-ras transformed cells (viability, DNA fragmentation, flow cytometry) (tMEF p53+/+ cells [1]; transformed MEF) | apoptosis in normal counterparts (MEF p53+/+ cells) | p53 requirement of apoptosis induction [3] | apoptosis induction [4] | effect on cell viability (trypan blue exclusion) (tMEF p53+/+ cells [1]) | apoptosis (DNA analysis) (tMEF p53+/+ cells [1]) | also measured
CCCCS(=N)(=O)CCC(N)C(=O)O [BSO, L-buthionine sulfoximine] | – | – | – | – | – | – | effect on NAC-induced apoptosis (viability) (tMEF p53+/+ cells [1]; tMEF p53+/+, 20 μM BSO + 20 mM NAC 24 h): did not block NAC-induced apoptosis; also recorded: cannot block NAC-induced apoptosis; effect on induction of cellular GSH by NAC (tMEF p53+/+ cells [2]): completely blocks induction of cellular GSH by NAC; also recorded: inhibits cellular GSH elevation by NAC; effect on induction of total thiols by NAC (tMEF p53+/+ cells [2]): only partially blocking the induction of total thiols
O=C1N[C@H](C(=O)O)CS1 [OTC, L-2-oxo-4-thiazolidinecarboxylate] | selectively induced apoptosis | not in their normal counterparts | required p53 | induced apoptosis | – | – | –
O=C(O)CCCC[C@@H]1CCSS1 (racemic) [lipoic acid] | behaved similarly | behaved similarly | required p53 | induced apoptosis | – | – | –
CC(=O)N[C@@H](CS)C(=O)O [NAC, N-acetylcysteine] | – | – | – | induced apoptosis | – | – | cell death (cell viability by trypan blue exclusion) (308 papilloma cells [5]): dose-dependent cell death; in situ end-labeling of DNA strand-breaks (apoptosis) (308 papilloma cells [6]): showing in situ end-labeling of DNA strand-breaks; NAC-induced apoptosis (viability, DNA fragmentation) (tMEF p53+/+ cells [1]; tMEF p53+/+, NAC 24 h): sensitive to NAC-induced apoptosis; NAC-induced apoptosis (viability) (MEF p53+/+ cells; normal MEF p53+/+, NAC 24 h): strikingly resistant; NAC-induced apoptosis (viability) ([3]; transformed and normal primary cells from p53-/- null mice, NAC 24 h): deficient in apoptosis induced by NAC; increase of p53 protein levels (p53 protein [7]): 5- to 10 fold; steady-state level of p53 mRNA vs control (p53 mRNA): no major difference; elevation of biosynthetic rate of p53 protein (p53 protein [8]): ~5 fold; p53 induction (p53): induced p53; p53 induction (p53 protein [9]): p53 was induced; induction of DNA damage (DNA): does not induce DNA damage
COc1ccc(O)c(C(C)(C)C)c1 [BHA] | – | – | – | – | little effect on cell viability; also recorded: do not induce cell death | no apoptosis occurred | –
Cc1c(C)c2c(c(C)c1O)CCC(C)(C(=O)O)O2 (centres unmarked) [Trolox] | – | – | – | – | little effect on cell viability; also recorded: do not induce cell death | no apoptosis occurred; also recorded: did not induce p53-dependent apoptosis | –
CC(=O)Oc1c(C)c(C)c2c(c1C)CCC(C)(CCC[C@H](C)CCC[C@H](C)CCCC(C)C)O2 (some centres unmarked) [vitamin E acetate, tocopherol acetate] | – | – | – | – | little effect on cell viability | no apoptosis occurred; also recorded: did not induce p53-dependent apoptosis | effect on cell viability (trypan blue exclusion) (tMEF p53+/+ cells [1]; listed as tocopherol acetate): do not induce cell death
OCC(S)CS (centres unmarked) [DMP, 2,3-dimercaptopropanol] | selectively induced apoptosis | not in their normal counterparts | required p53 | induced apoptosis | – | – | doses at which active (apoptosis induction) (tMEF p53+/+ cells [1]; transformed MEF): ≥ 50 µM
